Source: patent US8017828B2, “Utilization of rare sugars in plant or microorganism” (Shikoku Research Institute Incorporated, priority 2004, dated 2011)
Where two headings read alike, the source gives them in different places.

Assays:
Type in all cases: in vivo
[1] = system: lipoxygenase gene; experiment: Northern blotting of lipoxygenase gene expression in sprayed cut leaves of rough lemon; details: 0.5 mM sprayed on cut leaves, 2 to 48 hours
Procedure: Cut leaves of rough lemon were treated by spraying each of 0.5 mM L-psicose, L- & D-tagatose and D-sorbose thereon and were let stand for 2, 4, 6, 12, 24 and 48 hours at 24° C. under the dark condition in a moist chamber. Then, from the treated leaves, total RNA was extracted and the expression of genes of lipoxygenase and chitinase was analyzed by Northern blotting. The assays and analyses were repeated at least 3 times in all the treated plots, and equivalent results were obtained.

[2] = system: strawberry plant (variety: “smile ruby”); experiment: Foliar spraying of sugar on potted strawberry, fruit harvest; details: 0.5% (w/v) sprayed three times weekly
Procedure: A strawberry plant (variety: “smile ruby”) was used in an experiment. The strawberry plants were planted in pots and from Feb. 13, 2004, while the cultivation was carried out in a glass house, water or a 0.5% (w/v) sugar solution was sprayed onto the whole plant on a three times weekly basis. As for the types of sugars, D-glucose and D-psicose were used and two pots were cultivated for each test plot. While the cultivation was continued, the number of fruits, the weight of fruits, the sugar content of fruits were measured with regard to the fruits that could be harvested by Mar. 25, 2004.

[3] = system: Vitis vinifera L.
Procedure: Matured branches of “V. vinifera L.” grown outdoors were collected on December 25 during the dormant stage and were prepared to have one bud, and then, each cutting base was immersed in a 0.01, 0.1 or 1% aqueous solution of D-psicose for 24 hours. On the following day December 26, the same procedure as in 1 was carried out. In a control plot, distilled water was used, and to the liquid for treatment, Approach BI was not added. The judgment of bud flush was carried out in accordance with the method in 1. The measurement of bud flush was carried out on about a weekly basis.
In the survey of the bud flush rate, 9 cuttings were used for each plot and the procedure was repeated twice and an average was obtained.

[4] = system: PBZ1, chitinase gene (PCG3), PAL gene; experiment: Northern blot of genes related to resistance in rice after D-psicose treatment
Procedure: A seedling of a rice plant (variety: Nihonbare, see FIG. 10, the middle of the photograph, the white bar: 5 mm) at day 5 after sowing was used for an experiment. The rice seedling was raised by hydroponic culture in a pot using Kimura B solution. The Kimura B solution was supplemented with D-psicose at each concentration. While the solution was replaced with the same solution every 5 days, cultivation was carried out for 10 days. Thereafter, the seedling was transplanted to a pot filled with soil, and then, cultivation was carried out with natural light in a glass chamber for 7 days. Then, total RNA was extracted and a Northern blot analysis was carried out.

[5] = system: eggplant plant (variety: “Senryo NiGo”); experiment: Spraying of sugar solution during eggplant cultivation; details: 0.2% (w/v) sprayed weekly
Procedure: In the process of cultivation of eggplant, an effect of spraying D-psicose was examined.
An eggplant plant (variety: “Senryo NiGo”) was used in an experiment. Eggplant seedlings were transplanted for permanent planting to No. 7 unglazed pots filled with “Hana to Yasai no Tsuchi (garden soil for flowers and vegetables)” and a cultivation test was carried out in a vinyl house equipped with a heating device. As a fertilizer, 4 granules of IB compound fertilizer per pot were given around the roots, and irrigation was carried out by automatically feeding 500 ml of water twice a day. During the cultivation, on a weekly basis, water, a 0.2% (w/v) D-glucose solution or a 0.2 (w/v) D-psicose solution was sprayed onto the whole plant. As for the number of eggplant plants, 10 plants were used for each group, and the cultivation was carried out twice, i.e., in summer (from May 14 to Jul. 15, 2004) and in winter (from Nov. 4, 2004 to Feb. 24, 2005). A survey was carried out with regard to the growth conditions during the cultivation and yield of fruits.

[6] = system: tomato plant (variety: “Momotaro”); experiment: Spraying of sugar solution during tomato cultivation; details: 0.2% (w/v) sprayed weekly
Procedure: In the process of cultivation of tomato, an effect of spraying D-psicose was examined.
A tomato plant (variety: “Momotaro”) was used in an experiment. Tomato seedlings were transplanted for permanent planting to No. 7 unglazed pots filled with “Hana to Yasai no Tsuchi (garden soil for flowers and vegetables)” and a cultivation test was carried out in a vinyl house equipped with a heating device. As a fertilizer, 4 granules of IB compound fertilizer per pot were given around the roots, and irrigation was carried out by automatically feeding 500 ml of water twice a day. During the cultivation, on a weekly basis, water, a 0.2% (w/v) D-glucose solution or a 0.2% (w/v) D-psicose solution was sprayed onto the whole plant. As for the number of tomato plants, 10 plants were used for each group, and the cultivation was carried out twice, i.e., in summer (from April 20 to Aug. 9, 2004) and in winter (from Nov. 4, 2004 to Mar. 14, 2005). A survey was carried out with regard to the growth conditions during the cultivation and yield of fruits.

[7] = system: strawberry plant (variety: “Sachinoka”); experiment: Spraying of sugar solution during soilless culture of strawberry; details: 0.2% (w/v) sprayed weekly
Procedure: In the process of cultivation of strawberry, an effect of spraying D-psicose was examined.
A strawberry plant (variety: “Sachinoka”) was used in an experiment. Strawberry seedlings were transplanted for permanent planting to a mixed culture medium of rockwool and peat moss, and then, by using Otsuka A prescription hydroponic nutrient solution, soilless culture was carried out in a glass house. During the cultivation, on a weekly basis, water, a 0.2% (w/v) D-glucose solution or a 0.2% (w/v) D-psicose solution was sprayed onto the whole plant. As for the number of strawberry plants, 17, 19 and 18 plants were used for the groups, respectively, and permanent planting was carried out on Sep. 24, 2004, and spraying was started from Oct. 22, 2004. A survey was carried out with regard to the growth conditions, the yield of fruits, the quality of fruits and the like by Mar. 7, 2005.

[8] = 0.5 mM for 10 days, 1 week after transplanting

O=C(CO)[C@H](O)[C@H](O)[C@H](O)CO [D-psicose]
induction of the expression of lipoxygenase gene, persistency [1]: maintained for the longest time
average weight of fruits ([2]; increased from 13.5 g): 16.6 g
number of fruits that could be harvested during the cultivation period ([2]; increased from 25): 38
total weight of fruits that could be harvested ([2]; increased from 337.8 g): 630.3 g
bud flush rate ([3]; 0.01%): a similar pattern to that of the control plot
bud flush rate ([3]; 0.1%, throughout the whole period): the lowest value
bud flush rate ([3]; 1%, after the mid-February): the highest value
bud flush rate compared with control plot ([3]; all plots (0.01, 0.1, 1%), until early February): lower
state of green branches of grapes in summer after treatment ([3]; in vivo): withered and dead
expression of genes related to rice disease resistance in leaves ([4]; 0.5 mM 10 days, then one week in soil without D-psicose): induction
induction of PBZ1 [4, 8]: strongly observed
induction of chitinase gene (PCG3) [4, 8]: strongly observed
effect on PAL gene ([4]; constantly expressed gene): no effect
expression of PBZ1 and chitinase gene (PCG3) ([4]; treated plots of from 0.0005 to 0.1 mM): not expressed
significant effect of spraying on cultivation ([5]; summer): not observed
growth (aerial part weight and underground part weight) ([5]; winter): promotion of the growth
yield of fruits ([5]; winter): increase
significant effect of spraying on cultivation ([6]; summer): not observed
number of fruits ([6]; winter): increase
yield of fruits ([6]; winter): increase
acidity in the fruit [7]: improvement
content of vitamin C in the fruit [7]: improvement
flower-bud formation [7]: promotion
growth and total yield [7]: no significant difference
harvesting time [7]: acceleration
